Measured values taken from patent US9302999B2, “Substituted triazoles as herbicides” (E. I. DU PONT DE NEMOURS AND COMPANY, priority 2012, dated 2016).

Columns and labels:
Type in all cases: in vivo
[1] = test system: ducksalad (Heteranthera limosa); assay: Test C flooded paddy test: ducksalad; details: scale 0 to 100 (0 no effect, 100 complete control)
Summary of the method: (§1)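 2-leaf stage plants; pots flooded 3 cm above soil; compound applied into paddy water, depth maintained. Greenhouse 13–15 d. Visual rating vs controls, 0–100 (0 = no effect, 100 = complete control); dash = no result.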

[2] = test system: sedge, umbrella (small-flower umbrella sedge, Cyperus difformis); assay: Test C flooded paddy test: sedge, umbrella; details: scale 0 to 100 (0 no effect, 100 complete control)
Summary of the method: as §1

[3] = test system: wheat (Triticum aestivum); assay: Test A pre-/postemergence: wheat; details: for Wheat plant response rating: Postemergence; for Plant response rating, Wheat: Preemergence
Summary of the method: (§2)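 Pre: directed soil spray after planting in loam + sand. Post: same formulation (non-phytotoxic solvent + surfactant) on 1–2-leaf plants, 2–10 cm. Greenhouse ~10 d; visual injury 0–100 vs untreated.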

[4] = test system: morningglory (Ipomoea spp.); assay: Test A pre-/postemergence: morningglory; details: for Morningglory plant response rating: Postemergence; for Plant response rating, Morningglory: Preemergence
Summary of the method: as §2

[5] = test system: barnyardgrass (Echinochloa crus-galli); assay: Test C flooded paddy test: barnyardgrass; details: scale 0 to 100 (0 no effect, 100 complete control)
Summary of the method: as §1

[6] = test system: rice (Oryza sativa); assay: Test C flooded paddy test: rice; details: scale 0 to 100 (0 no effect, 100 complete control)
Summary of the method: as §1

[7] = test system: corn (Zea mays); assay: Test A pre-/postemergence: corn; details: for Corn plant response rating: Postemergence; for Plant response rating, Corn: Preemergence
Summary of the method: as §2

[8] = test system: barnyardgrass (Echinochloa crus-galli); assay: Test A pre-/postemergence: barnyardgrass; details: for Barnyardgrass plant response rating: Postemergence; for Plant response rating, Barnyardgrass: Preemergence
Summary of the method: as §2

[9] = test system: velvetleaf (Abutilon theophrasti); assay: Test A pre-/postemergence: velvetleaf; details: for Velvetleaf plant response rating: Postemergence; for Plant response rating, Velvetleaf: Preemergence
Summary of the method: as §2

[10] = test system: pigweed (Amaranthus retroflexus); assay: Test A pre-/postemergence: pigweed; details: for Pigweed plant response rating: Postemergence; for Plant response rating, Pigweed: Preemergence
Summary of the method: as §2

[11] = test system: crabgrass, large (large crabgrass, Digitaria sanguinalis); assay: Test A pre-/postemergence: crabgrass, large; details: for Crabgrass, Large plant response rating: Postemergence; for Plant response rating, Crabgrass, Large: Preemergence
Summary of the method: as §2

[12] = test system: foxtail, giant (giant foxtail, Setaria faberii); assay: Test A pre-/postemergence: foxtail, giant; details: for Foxtail, Giant plant response rating: Postemergence; for Plant response rating, Foxtail, Giant: Preemergence
Summary of the method: as §2

[13] = Flood (flooded paddy test), 125 g ai/ha, visual rating after 13 to 15 days
[14] = Flood (flooded paddy test), 250 g ai/ha, visual rating after 13 to 15 days
[15] = 125 g ai/ha, 0 to 100 scale, 0 is no effect, 100 is complete control
[16] = 500 g ai/ha, visual rating on 0 to 100 scale (0 no effect, 100 complete control), approximately ten days
[17] = 125 g ai/ha, 0 to 100 scale (0 no effect, 100 complete control)
[18] = 500 g ai/ha, 0 to 100 scale, 0 is no effect, 100 is complete control

Cc1nn(-c2ccc(C(F)(F)F)cc2)nc1Oc1ccccc1Cl [Compound 82]
Plant response rating, Ducksalad [1, 13]: 0
Plant response rating, Ducksalad [1, 14]: 0
Plant response rating, Ducksalad ([1]; Flood, 31 g ai/ha): 0
Plant response rating, Ducksalad ([1]; Flood, 62 g ai/ha): 0
Plant response rating, Sedge, Umbrella [2, 13]: 0
Plant response rating, Sedge, Umbrella [2, 14]: 0
Plant response rating, Sedge, Umbrella ([2]; Flood, 31 g ai/ha): 0
Plant response rating, Sedge, Umbrella ([2]; Flood, 62 g ai/ha): 0
Wheat plant response rating [3, 15]: 0
Wheat plant response rating [3, 16]: 0
Plant response rating, Wheat [3, 17]: 0
Plant response rating, Wheat [3, 18]: 0
Morningglory plant response rating [4, 15]: 0
Morningglory plant response rating [4, 16]: 0
Plant response rating, Morningglory [4, 17]: 0
Plant response rating, Morningglory [4, 18]: 0
Plant response rating, Barnyardgrass [5, 13]: 0
Plant response rating, Barnyardgrass [5, 14]: 0
Plant response rating, Barnyardgrass ([5]; Flood, 31 g ai/ha): 0
Plant response rating, Barnyardgrass ([5]; Flood, 62 g ai/ha): 0
Plant response rating, Rice [6, 13]: 0
Plant response rating, Rice [6, 14]: 0
Plant response rating, Rice ([6]; Flood, 31 g ai/ha): 0
Plant response rating, Rice ([6]; Flood, 62 g ai/ha): 0
Corn plant response rating [7, 15]: 0
Corn plant response rating [7, 16]: 0
Plant response rating, Corn [7, 17]: 0
Plant response rating, Corn [7, 18]: 0
Barnyardgrass plant response rating [8, 15]: 0
Barnyardgrass plant response rating [8, 16]: 0
Plant response rating, Barnyardgrass [8, 17]: 0
Plant response rating, Barnyardgrass [8, 18]: 0
Velvetleaf plant response rating [9, 15]: 0
Velvetleaf plant response rating [9, 16]: 0
Plant response rating, Velvetleaf [9, 17]: 0
Plant response rating, Velvetleaf [9, 18]: 0
Pigweed plant response rating [10, 15]: 0
Pigweed plant response rating [10, 16]: 0
Plant response rating, Pigweed [10, 17]: 0
Plant response rating, Pigweed [10, 18]: 0
Crabgrass, Large plant response rating [11, 15]: 0
Crabgrass, Large plant response rating [11, 16]: 0
Plant response rating, Crabgrass, Large [11, 17]: 0
Plant response rating, Crabgrass, Large [11, 18]: 0
Foxtail, Giant plant response rating [12, 15]: 0
Foxtail, Giant plant response rating [12, 16]: 0
Plant response rating, Foxtail, Giant [12, 17]: 0
Plant response rating, Foxtail, Giant [12, 18]: 0

Cc1nn(-c2ccc(C(F)(F)F)cc2)nc1Oc1ccc(C(F)(F)F)cc1 [Compound 83]
Plant response rating, Ducksalad [1, 13]: 20
Plant response rating, Ducksalad [1, 14]: 30
Plant response rating, Ducksalad ([1]; Flood, 31 g ai/ha): 0
Plant response rating, Ducksalad ([1]; Flood, 62 g ai/ha): 20
Plant response rating, Sedge, Umbrella [2, 13]: 20
Plant response rating, Sedge, Umbrella [2, 14]: 30
Plant response rating, Sedge, Umbrella ([2]; Flood, 31 g ai/ha): 10
Plant response rating, Sedge, Umbrella ([2]; Flood, 62 g ai/ha): 20
Wheat plant response rating [3, 15]: 0
Wheat plant response rating [3, 16]: 0
Plant response rating, Wheat [3, 17]: 0
Plant response rating, Wheat [3, 18]: 0
Morningglory plant response rating [4, 15]: 0
Morningglory plant response rating [4, 16]: 0
Plant response rating, Morningglory [4, 17]: 0
Plant response rating, Morningglory [4, 18]: 0
Plant response rating, Barnyardgrass [5, 13]: 0
Plant response rating, Barnyardgrass [5, 14]: 0
Plant response rating, Barnyardgrass ([5]; Flood, 31 g ai/ha): 0
Plant response rating, Barnyardgrass ([5]; Flood, 62 g ai/ha): 0
Plant response rating, Rice [6, 13]: 20
Plant response rating, Rice [6, 14]: 25
Plant response rating, Rice ([6]; Flood, 31 g ai/ha): 10
Plant response rating, Rice ([6]; Flood, 62 g ai/ha): 20
Corn plant response rating [7, 15]: 0
Corn plant response rating [7, 16]: 0
Plant response rating, Corn [7, 17]: 0
Plant response rating, Corn [7, 18]: 0
Barnyardgrass plant response rating [8, 15]: 0
Barnyardgrass plant response rating [8, 16]: 0
Plant response rating, Barnyardgrass [8, 17]: 0
Plant response rating, Barnyardgrass [8, 18]: 0
Velvetleaf plant response rating [9, 15]: 0
Velvetleaf plant response rating [9, 16]: 0
Plant response rating, Velvetleaf [9, 17]: 0
Plant response rating, Velvetleaf [9, 18]: 0
Pigweed plant response rating [10, 15]: 0
Pigweed plant response rating [10, 16]: 0
Plant response rating, Pigweed [10, 17]: 0
Plant response rating, Pigweed [10, 18]: 0
Crabgrass, Large plant response rating [11, 15]: 0
Crabgrass, Large plant response rating [11, 16]: 0
Plant response rating, Crabgrass, Large [11, 17]: 0
Plant response rating, Crabgrass, Large [11, 18]: 0
Foxtail, Giant plant response rating [12, 15]: 0
Foxtail, Giant plant response rating [12, 16]: 0
Plant response rating, Foxtail, Giant [12, 17]: 0
Plant response rating, Foxtail, Giant [12, 18]: 0
